In article PMC8298857, “Vanillin Activates Human Bitter Taste Receptors TAS2R14, TAS2R20, and TAS2R39” (Frontiers in Nutrition, 2021) one finds EC50 data, which are given here for 1 molecule.

Test in all cases: FLIPR calcium imaging in transfected HEK293 PEAKrapid Gα[…]i/o44 cells, dose-response with mock control
Assay type in all cases: cell-based

In experiment [1] the target is T1, TAS2R20 (Homo sapiens, UniProt P59543).
T1 construct: TAS2R cDNA cloned 3′ of the first 45 amino acids of the rat somatostatin receptor 3
T1 sequence (P59543 1-309): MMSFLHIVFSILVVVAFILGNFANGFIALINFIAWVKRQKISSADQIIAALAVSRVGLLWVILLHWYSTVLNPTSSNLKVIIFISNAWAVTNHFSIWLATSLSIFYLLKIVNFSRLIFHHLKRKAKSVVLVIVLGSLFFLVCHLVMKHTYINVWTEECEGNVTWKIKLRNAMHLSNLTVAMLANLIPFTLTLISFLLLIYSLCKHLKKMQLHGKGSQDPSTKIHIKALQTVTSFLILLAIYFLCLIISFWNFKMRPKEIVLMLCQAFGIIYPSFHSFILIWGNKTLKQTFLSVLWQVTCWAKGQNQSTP

For experiment [2], the target named is T2, TAS2R39 (Homo sapiens, UniProt P59534).
T2 construct: TAS2R cDNA cloned 3′ of the first 45 amino acids of the rat somatostatin receptor 3
T2 sequence (P59534 1-338): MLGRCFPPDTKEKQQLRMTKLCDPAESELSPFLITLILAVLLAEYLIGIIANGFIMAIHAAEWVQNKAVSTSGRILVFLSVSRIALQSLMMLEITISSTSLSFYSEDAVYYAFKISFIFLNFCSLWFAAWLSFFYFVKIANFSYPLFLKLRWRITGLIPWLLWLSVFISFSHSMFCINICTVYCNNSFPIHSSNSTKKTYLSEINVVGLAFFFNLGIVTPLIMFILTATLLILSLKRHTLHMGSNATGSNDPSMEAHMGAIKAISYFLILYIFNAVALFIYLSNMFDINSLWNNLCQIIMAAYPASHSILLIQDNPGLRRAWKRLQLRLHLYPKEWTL

For experiment [3], the target named is T3, TAS2R14 (Homo sapiens, UniProt Q9NYV8).
T3 construct: TAS2R cDNA cloned 3′ of the first 45 amino acids of the rat somatostatin receptor 3
T3 sequence (Q9NYV8 1-317): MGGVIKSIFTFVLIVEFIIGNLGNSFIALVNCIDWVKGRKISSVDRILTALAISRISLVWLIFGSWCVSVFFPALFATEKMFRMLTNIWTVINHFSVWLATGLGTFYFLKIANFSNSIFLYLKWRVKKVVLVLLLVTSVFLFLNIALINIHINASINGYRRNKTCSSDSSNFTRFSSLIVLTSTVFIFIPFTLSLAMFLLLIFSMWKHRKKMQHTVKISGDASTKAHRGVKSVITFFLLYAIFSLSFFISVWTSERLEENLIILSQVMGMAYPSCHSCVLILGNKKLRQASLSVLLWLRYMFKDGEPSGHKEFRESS

The structures appear in SMILES notation.

As to `COc1cc(C=O)ccc1O` [vanillin, 4-hydroxy-3-methoxybenzaldehyde], the EC50 is 530 ± 90 µM in experiment [1], 870 ± 190 µM in experiment [2] and 570 ± 110 µM in experiment [3].
